“And” between values parts separate entries of the source, which are not always exact repeats. Equal entries are not always repeated.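 All cell lines were grown in 96-well plates and treated with compound for 48 hours. The concentration for 50% growth inhibition is given as GI50. TGI marks complete inhibition of growth.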
Assays:
Assay in all cases: DTP human tumour cell line panel, 48 h; in the data active = GI50 below about 0.43 µM; inactive = the rest
786-0 renal = system: 786-0 renal
A498 renal = system: A498 renal
A549 NSCLC = system: A549 NSCLC
ACHN renal = system: ACHN renal
CAKI-1 renal = system: CAKI-1 renal
CCRF-CEM leukemia = system: CCRF-CEM leukemia
DU-145 prostate = system: DU-145 prostate
EKVX NSCLC = system: EKVX NSCLC
HCT-116 colon = system: HCT-116 colon
HCT-15 colon = system: HCT-15 colon
HOP-62 NSCLC = system: HOP-62 NSCLC
HOP-92 NSCLC = system: HOP-92 NSCLC
HS 578T breast = system: HS 578T breast
HT29 colon = system: HT29 colon
IGROV1 ovarian = system: IGROV1 ovarian
K-562 leukemia = system: K-562 leukemia
KM12 colon = system: KM12 colon
LOX IMVI melanoma = system: LOX IMVI melanoma
M14 melanoma = system: M14 melanoma
MCF7 breast = system: MCF7 breast
MDA-MB-231 breast = system: MDA-MB-231 breast
MDA-MB-435 = system: MDA-MB-435
MDA-N = system: MDA-N
MOLT-4 leukemia = system: MOLT-4 leukemia
NCI-H226 lung = system: NCI-H226 lung
NCI/ADR-RES ovarian = system: NCI/ADR-RES ovarian
OVCAR-4 ovarian = system: OVCAR-4 ovarian
OVCAR-5 ovarian = system: OVCAR-5 ovarian
OVCAR-8 ovarian = system: OVCAR-8 ovarian
PC-3 prostate = system: PC-3 prostate
RPMI-8226 leukemia = system: RPMI-8226 leukemia
RXF 393 renal = system: RXF 393 renal
SF-268 CNS = system: SF-268 CNS
SK-MEL-2 melanoma = system: SK-MEL-2 melanoma
SK-MEL-28 melanoma = system: SK-MEL-28 melanoma
SK-MEL-5 melanoma = system: SK-MEL-5 melanoma
SK-OV-3 ovarian = system: SK-OV-3 ovarian
SN12C renal = system: SN12C renal
SNB-19 CNS = system: SNB-19 CNS
SNB-75 CNS = system: SNB-75 CNS
SR leukemia = system: SR leukemia
SW-620 colon = system: SW-620 colon
TK-10 renal = system: TK-10 renal
U251 CNS = system: U251 CNS
UACC-257 melanoma = system: UACC-257 melanoma
UACC-62 melanoma = system: UACC-62 melanoma
UO-31 renal = system: UO-31 renal
BT-549 breast = system: BT-549 breast
COLO 205 colon = system: COLO 205 colon
HCC-2998 colon = system: HCC-2998 colon
HL-60(TB) leukemia = system: HL-60(TB) leukemia
MALME-3M melanoma = system: MALME-3M melanoma
NCI-H23 lung = system: NCI-H23 lung
NCI-H460 lung = system: NCI-H460 lung
NCI-H522 lung = system: NCI-H522 lung
OVCAR-3 ovarian = system: OVCAR-3 ovarian
SF-295 CNS = system: SF-295 CNS
SF-539 CNS = system: SF-539 CNS
T-47D breast = system: T-47D breast

COc1ccc2c(c1)/c(=C/c1ccc(N(C)C)cc1)c1cc(-c3ccccc3)[n+](C)n12
2.51 µM and 1.84 µM: TGI (DU-145 prostate)
1.47 µM: TGI (MDA-MB-435)
2.19 µM: TGI (UACC-257 melanoma)
5.68 µM: TGI (ACHN renal)
3.17 µM: TGI (OVCAR-5 ovarian)
1.97 µM: TGI (SW-620 colon)
1.1 µM: TGI (SF-268 CNS)
0.327 µM: TGI (SNB-75 CNS)
5.07 µM: TGI (A549 NSCLC)
0.543 µM: TGI (IGROV1 ovarian)
0.785 µM: TGI (NCI-H226 lung)
1.21 µM: TGI (SNB-19 CNS)
1.51 µM: TGI (LOX IMVI melanoma)
2.59 µM: TGI (HCT-116 colon)
0.784 µM: TGI (HOP-92 NSCLC)
1.08 µM: TGI (MDA-MB-231 breast)
7.11 µM: TGI (MCF7 breast)
3.28 µM: TGI (UO-31 renal)
2.83 µM: TGI (OVCAR-4 ovarian)
0.44 µM: TGI (HS 578T breast) | TGI (OVCAR-8 ovarian)
1.48 µM: TGI (MDA-N)
1.71 µM: TGI (KM12 colon)
1.42 µM: TGI (EKVX NSCLC)
4.02 µM: TGI (HCT-15 colon)
1.06 µM: TGI (SK-MEL-5 melanoma)
0.566 µM and 0.982 µM: TGI (HT29 colon)
2.75 µM: TGI (A498 renal)
2.71 µM: TGI (HOP-62 NSCLC)
1.64 µM: TGI (RXF 393 renal)
5.64 µM: TGI (CAKI-1 renal)
1.09 µM: TGI (PC-3 prostate)
2.01 µM: TGI (UACC-62 melanoma)
1.24 µM: TGI (SN12C renal)
5.32 µM and 6.29 µM: TGI (TK-10 renal)
4.92 µM: TGI (MOLT-4 leukemia)
inactive: GI50 (TK-10 renal) 0.711 µM
2.31 µM: TGI (SK-MEL-28 melanoma)
> 100 µM: TGI (NCI/ADR-RES ovarian)
1.98 µM: TGI (SK-OV-3 ovarian)
1.61 µM: TGI (SK-MEL-2 melanoma)
1.36 µM: TGI (M14 melanoma)
2.84 µM: TGI (SR leukemia)
active: GI50 (CCRF-CEM leukemia) 0.0859 µM | GI50 (DU-145 prostate) 0.108 µM | GI50 (HT29 colon) 0.0753 µM | GI50 (K-562 leukemia) 0.0487 µM | GI50 (MOLT-4 leukemia) 0.142 µM | GI50 (RPMI-8226 leukemia) 0.0555 µM
1.6 µM: TGI (786-0 renal) | TGI (U251 CNS)

O=C(CNc1ccc(Cl)cc1Cl)NC1C=Cc2ccc(S(=O)(=O)Nc3ccc(Cl)cc3Cl)cc2C1=O (stereo unspecified)
> 100 µM: TGI (786-0 renal) | TGI (A549 NSCLC) | TGI (ACHN renal) | TGI (BT-549 breast) | TGI (CAKI-1 renal) | TGI (CCRF-CEM leukemia) | TGI (COLO 205 colon) | TGI (DU-145 prostate) | TGI (EKVX NSCLC) | TGI (HCC-2998 colon) | TGI (HCT-116 colon) | TGI (HCT-15 colon) | TGI (HL-60(TB) leukemia) | TGI (HOP-62 NSCLC) | TGI (HOP-92 NSCLC) | TGI (HS 578T breast) | TGI (HT29 colon) | TGI (IGROV1 ovarian) | TGI (K-562 leukemia) | TGI (KM12 colon) | TGI (LOX IMVI melanoma) | TGI (M14 melanoma) | TGI (MALME-3M melanoma) | TGI (MCF7 breast) | TGI (MDA-MB-231 breast) | TGI (MDA-MB-435) | TGI (MDA-N) | TGI (MOLT-4 leukemia) | TGI (NCI-H226 lung) | TGI (NCI-H23 lung) | TGI (NCI-H460 lung) | TGI (NCI-H522 lung) | TGI (NCI/ADR-RES ovarian) | TGI (OVCAR-3 ovarian) | TGI (OVCAR-5 ovarian) | TGI (OVCAR-8 ovarian) | TGI (PC-3 prostate) | TGI (RPMI-8226 leukemia) | TGI (SF-268 CNS) | TGI (SF-295 CNS) | TGI (SF-539 CNS) | TGI (SK-MEL-2 melanoma) | TGI (SK-MEL-28 melanoma) | TGI (SK-OV-3 ovarian) | TGI (SN12C renal) | TGI (SNB-19 CNS) | TGI (SNB-75 CNS) | TGI (SR leukemia) | TGI (SW-620 colon) | TGI (TK-10 renal) | TGI (U251 CNS) | TGI (UACC-257 melanoma) | TGI (UACC-62 melanoma) | TGI (UO-31 renal)

CN(C)C(=O)O[C@@H]1CN[C@@H](C#Cc2cc3ncnc(Nc4ccc(OCc5cccc(F)c5)c(Cl)c4)c3s2)C1
> 21.8 µM: TGI (MOLT-4 leukemia)
> 21.7 µM: TGI (786-0 renal)
> 20 µM: TGI (MDA-MB-231 breast)
> 25 µM: TGI (A549 NSCLC) | TGI (ACHN renal) | TGI (CAKI-1 renal) | TGI (CCRF-CEM leukemia) | TGI (COLO 205 colon) | TGI (DU-145 prostate) | TGI (HCC-2998 colon) | TGI (HCT-116 colon) | TGI (HCT-15 colon) | TGI (HOP-62 NSCLC) | TGI (HOP-92 NSCLC) | TGI (HS 578T breast) | TGI (HT29 colon) | TGI (IGROV1 ovarian) | TGI (K-562 leukemia) | TGI (KM12 colon) | TGI (LOX IMVI melanoma) | TGI (M14 melanoma) | TGI (MALME-3M melanoma) | TGI (MCF7 breast) | TGI (MDA-MB-435) | TGI (NCI-H23 lung) | TGI (NCI-H460 lung) | TGI (NCI/ADR-RES ovarian) | TGI (OVCAR-3 ovarian) | TGI (OVCAR-4 ovarian) | TGI (OVCAR-5 ovarian) | TGI (OVCAR-8 ovarian) | TGI (PC-3 prostate) | TGI (RPMI-8226 leukemia) | TGI (RXF 393 renal) | TGI (SF-268 CNS) | TGI (SF-295 CNS) | TGI (SF-539 CNS) | TGI (SK-MEL-2 melanoma) | TGI (SK-MEL-28 melanoma) | TGI (SK-MEL-5 melanoma) | TGI (SK-OV-3 ovarian) | TGI (SN12C renal) | TGI (SNB-19 CNS) | TGI (SNB-75 CNS) | TGI (SR leukemia) | TGI (SW-620 colon) | TGI (T-47D breast) | TGI (TK-10 renal) | TGI (U251 CNS) | TGI (UACC-257 melanoma) | TGI (UACC-62 melanoma)
> 21.4 µM: TGI (BT-549 breast)
> 20.9 µM: TGI (UO-31 renal)
active: GI50 (SK-OV-3 ovarian) 0.406 µM
inactive: GI50 (786-0 renal) 9.48 µM | GI50 (A498 renal) 5.65 µM | GI50 (A549 NSCLC) 7.82 µM | GI50 (ACHN renal) 18.9 µM | GI50 (BT-549 breast) 7.93 µM | GI50 (CAKI-1 renal) 5.87 µM | GI50 (CCRF-CEM leukemia) 2.78 µM | GI50 (COLO 205 colon) > 25 µM | GI50 (DU-145 prostate) > 25 µM | GI50 (EKVX NSCLC) 5.14 µM | GI50 (HCC-2998 colon) 14.1 µM | GI50 (HCT-116 colon) > 25 µM | GI50 (HCT-15 colon) > 25 µM | GI50 (HL-60(TB) leukemia) 9.86 µM | GI50 (HOP-62 NSCLC) > 25 µM | GI50 (HOP-92 NSCLC) 6.5 µM | GI50 (HS 578T breast) > 25 µM | GI50 (HT29 colon) > 25 µM | GI50 (IGROV1 ovarian) 13.1 µM | GI50 (K-562 leukemia) > 25 µM | GI50 (KM12 colon) 9.85 µM | GI50 (LOX IMVI melanoma) > 25 µM | GI50 (M14 melanoma) > 25 µM | GI50 (MALME-3M melanoma) 9.41 µM | GI50 (MCF7 breast) > 25 µM | GI50 (MDA-MB-231 breast) 6.6 µM | GI50 (MDA-MB-435) > 25 µM | GI50 (MOLT-4 leukemia) 6.73 µM | GI50 (NCI-H226 lung) 9.22 µM | GI50 (NCI-H23 lung) > 25 µM | GI50 (NCI-H460 lung) 8.33 µM | GI50 (NCI-H522 lung) 2.14 µM | GI50 (NCI/ADR-RES ovarian) > 25 µM | GI50 (OVCAR-3 ovarian) 7.51 µM | GI50 (OVCAR-4 ovarian) > 25 µM | GI50 (OVCAR-5 ovarian) > 25 µM | GI50 (OVCAR-8 ovarian) 18.7 µM | GI50 (PC-3 prostate) 8.53 µM | GI50 (RPMI-8226 leukemia) 7.18 µM | GI50 (RXF 393 renal) > 20.4 µM | GI50 (SF-268 CNS) 14.5 µM | GI50 (SF-295 CNS) > 25 µM | GI50 (SF-539 CNS) 8.58 µM | GI50 (SK-MEL-2 melanoma) > 25 µM | GI50 (SK-MEL-28 melanoma) > 25 µM | GI50 (SK-MEL-5 melanoma) > 25 µM | GI50 (SN12C renal) 8.01 µM | GI50 (SNB-19 CNS) > 25 µM | GI50 (SNB-75 CNS) > 19.4 µM | GI50 (SR leukemia) 20.1 µM | GI50 (SW-620 colon) > 25 µM | GI50 (T-47D breast) 11.2 µM | GI50 (TK-10 renal) 4.7 µM | GI50 (U251 CNS) > 21.2 µM | GI50 (UACC-257 melanoma) > 25 µM | GI50 (UACC-62 melanoma) > 25 µM | GI50 (UO-31 renal) 5.22 µM
> 18.4 µM: TGI (NCI-H226 lung)
> 23.2 µM: TGI (EKVX NSCLC)
> 10.5 µM: TGI (NCI-H522 lung)
> 19.7 µM: TGI (A498 renal)
> 22 µM: TGI (HL-60(TB) leukemia)

— PubChem BioAssay (NCI)
